Measured values as given in ChEMBL document CHEMBL1649432, “Chromosomal integration of the extended-spectrum beta-lactamase gene blaCTX-M-15 in Salmonella enterica serotype Concord isolates from internationally adopted children” (2009).
≈ marks a conversion by molar mass, not a printed value.

Experiments:
Type in all cases: functional, Salmonella enterica subsp. enterica serovar Concord
[1] = Antimicrobial activity against Salmonella enterica serotype concord expressing extended-spectrum beta-lactamase SHV-12 by disc diffusion method
[2] = Antimicrobial activity against Salmonella enterica serotype concord expressing extended-spectrum beta-lactamase CTX-M-15 by disc diffusion method
[3] = Antimicrobial activity against Salmonella enterica serotype concord expressing extended-spectrum beta-lactamase SHV-12 by Etest
[4] = Antimicrobial activity against Salmonella enterica serotype concord expressing extended-spectrum beta-lactamase CTX-M-15 by Etest

Structure (SMILES) | MIC [1] [µg/mL] | MIC ([2]; Salmonella enterica) [µg/mL] | MIC [3] [µg/mL] | MIC [4] [µg/mL] | Activity [2] [µg/mL]
CO/N=C(\C(=O)N[C@@H]1C(=O)N2C(C(=O)[O-])=C(C[N+]3(C)CCCC3)CS[C@H]12)c1csc(N)n1 [CEFEPIME] | 8 (≈ 16.6 µM) | > 256 |  |  | 
CC(C)(O/N=C(\C(=O)N[C@@H]1C(=O)N2C(C(=O)[O-])=C(C[n+]3ccccc3)CS[C@H]12)c1csc(N)n1)C(=O)O [CEFTAZIDIME] |  |  | > 256 | > 256 | 
CO/N=C(\C(=O)N[C@@H]1C(=O)N2C(C(=O)O)=C(CSc3nc(=O)c(O)nn3C)CS[C@H]12)c1csc(N)n1 [CEFTRIAXONE] |  |  | 64 (≈ 115 µM) | > 256 | 
O=C(O)c1cn(C2CC2)c2cc(N3CCNCC3)c(F)cc2c1=O [CIPROFLOXACIN] |  |  |  |  | 0.25
